From article PMC5773580, “A synthetic combinatorial approach to disabling deviant Hedgehog signaling” (Scientific Reports, 2018)
“And” between values parts separate entries of the source, which are not always exact repeats. Identical values can stand only once.

Legend:
[1] = system: RMS13 cells (GLI1 amp), GLI-BS reporter; test: GLI-BS reporter assay in RMS13 cells (GLI1 amplification); type: cell-based
Description: (§1) The HH-responsive firefly luciferase reporter (GLI-BS) and a control Renilla luciferase reporter (SV40-RL) were transfected into indicated cell lines using Effectene (Qiagen) either alone or with indicated DNAs. 24 hrs after transfection, cells were switched to low serum media (3% calf serum), and grown for another 48 hrs. in 5% CO2 in the presence/absence of compounds. 3T3-ShhFL cell line that stably expressing SHH and the two reporters were cultured in a similar fashion. FL and RL activities in lysate generated using Passive Lysis Buffer (Promega) were then assessed using the Dual-Luciferase kit (Promega) and a 96-well plate reading luminometer (BMG). The ratio of FL/RL was calculated and the averaged ratios from three replicates were reported.

[2] = system: SMO-M2 in NIH3T3 (GLI-BS reporter); test: GLI-BS reporter assay, NIH3T3 cells with SMO-M2 DNA; type: cell-based; details: Mus musculus
Description: as §1

[3] = system: HDAC activity (acetylated tubulin) in NIH-3T3 cells; test: Acetylation assay, Western blot of acetylated tubulin; type: cell-based; details: 48hrs
Description: (§2) For analyzing acetylation status of histone 3 and tubulin, NIH3T3 cells were grown to confluence in 6-well plates. After 48hrs of treatment with indicated chemicals, cells were lysed in RIPA buffer or 1% NP40/phosphate buffered saline/protease inhibitors (SIGMA, #S8820), the lysate cleared using a microcentrifuge, then 6 × sample loading buffer (Bioland Scientific) added to the supernatant. Proteins were separated on SDS-PAGE (BioRad Criterion TGX Precast Gels). Antibodies used for analyzing the blots were: acetylated tubulin (SIGMA, #T6793), tubulin, acetyl-histone H3 (Lys23), and histone H3 (Cell Signaling Technology, #2125 S, #8848 and #9717, respectively). Chemiluminescence was detected using a Li-COR Odyssey Imaging System.

[4] = system: nuclear HDAC activity (Ac-H3) in NIH-3T3 cells; test: Acetylation assay, Western blotting for acetylated histone 3 (Ac-H3); type: cell-based; details: 48hrs, Western blot
Description: as §2

[5] = system: SMO-L412F in NIH3T3 (GLI-BS reporter); test: GLI-BS reporter assay, NIH3T3 cells with SMO-L412F DNA; type: cell-based; details: Mus musculus
Description: as §1

[6] = system: GLI-BS reporter in Ptch1-/- MEFs; test: GLI-BS reporter assay in Ptch1-/- MEFs; type: cell-based
Description: as §1

HDAC3/NCOR2 = target: T1, HDAC3/NCOR2 (Homo sapiens, UniProt O15379); test: In vitro HDAC profiling (deacetylation assay), HDAC3; type: biochemical; details: for HDAC Activity (Fluorescent counts): Repeat1/Repeat 2
T1 construct: purchased BPS Bioscience #50051-11
T1 sequence (O15379 whole entry): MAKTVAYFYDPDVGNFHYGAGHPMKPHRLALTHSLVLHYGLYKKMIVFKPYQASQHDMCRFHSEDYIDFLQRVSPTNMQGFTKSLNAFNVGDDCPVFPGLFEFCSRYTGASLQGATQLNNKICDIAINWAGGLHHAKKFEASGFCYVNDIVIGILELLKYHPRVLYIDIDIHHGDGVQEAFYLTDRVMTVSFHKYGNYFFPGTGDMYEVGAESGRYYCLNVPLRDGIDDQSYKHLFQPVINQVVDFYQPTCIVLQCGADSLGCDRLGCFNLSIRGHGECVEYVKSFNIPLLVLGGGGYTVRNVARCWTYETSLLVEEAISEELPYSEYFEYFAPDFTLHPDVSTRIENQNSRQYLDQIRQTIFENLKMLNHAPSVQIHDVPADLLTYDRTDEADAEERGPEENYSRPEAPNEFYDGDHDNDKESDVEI
T1 sequence (Q9Y618 395-489 partner limits assumed): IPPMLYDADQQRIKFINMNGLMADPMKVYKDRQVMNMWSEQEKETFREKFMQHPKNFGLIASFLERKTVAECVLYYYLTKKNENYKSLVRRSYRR
Description: (§3) HDAC profiling was performed at BPS Bioscience (San Diego, CA). All of the compounds are dissolved in DMSO. A series of dilutions of the compounds were prepared with 10% DMSO in HDAC assay buffer (#50031) and 5 µl of the dilution was added to a 50 µl reaction so that the final concentration of DMSO is 1% in all of reactions. All of the enzymatic reactions were conducted in duplicate at 37 °C for 30 mins, except that the enzyme reactions for HDAC11 were at room temperature for 3 hrs. All of the reactions were performed in a 50 µl mixture containing HDAC assay buffer, 5 µg BSA, an HDAC substrate [HDAC Substrate 3 (BPS number 50037) or HDAC Class 2a Substrate 1 (BPS number 50040)], an HDAC enzyme (#50051-11) and a test compound. After enzymatic reactions, 50 μl of HDAC Developer (#50030) was added to each well and the plate was incubated at room temperature for an additional 20 mins. Fluorescence intensity was measured at an excitation of 360 nm and an emission of 460 nm using a Tecan Infinite M1000 microplate reader. HDAC activity assays were performed in duplicates at each concentration. The fluorescent intensity data were analyzed using the computer software, Graphpad Prism. In the absence of the compound, the fluorescent intensity (Ft) in each data set was defined as 100% activity. In the absence of HDAC, the fluorescent intensity (Fb) in each data set was defined as 0% activity. The percent activity in the presence of each compound was calculated according to the following equation: %activity = (F − Fb)/(Ft − Fb), where F = the fluorescent intensity in the presence of the compound. The values of % activity versus a series of compound concentrations were then plotted using non-linear regression analysis of Sigmoidal dose-response curve generated with the equation Y = B + (T − B)/1 + 10((LogIC50 − X) × Hill Slope), where Y = percent activity, B = minimum percent activity, T = maximum percent activity, X = logarithm of compound and Hill Slope = slope factor or Hill coefficient. The IC50 value was determined by the concentration causing a half-maximal percent activity.

HDAC2 = target: T2, HDAC2 (Homo sapiens, UniProt Q92769); test: In vitro HDAC profiling (deacetylation assay), HDAC2; type: biochemical; details: for HDAC Activity (Fluorescent counts): Repeat1/Repeat 2
T2 construct: purchased BPS Bioscience #50051-11
T2 sequence (Q92769 whole entry): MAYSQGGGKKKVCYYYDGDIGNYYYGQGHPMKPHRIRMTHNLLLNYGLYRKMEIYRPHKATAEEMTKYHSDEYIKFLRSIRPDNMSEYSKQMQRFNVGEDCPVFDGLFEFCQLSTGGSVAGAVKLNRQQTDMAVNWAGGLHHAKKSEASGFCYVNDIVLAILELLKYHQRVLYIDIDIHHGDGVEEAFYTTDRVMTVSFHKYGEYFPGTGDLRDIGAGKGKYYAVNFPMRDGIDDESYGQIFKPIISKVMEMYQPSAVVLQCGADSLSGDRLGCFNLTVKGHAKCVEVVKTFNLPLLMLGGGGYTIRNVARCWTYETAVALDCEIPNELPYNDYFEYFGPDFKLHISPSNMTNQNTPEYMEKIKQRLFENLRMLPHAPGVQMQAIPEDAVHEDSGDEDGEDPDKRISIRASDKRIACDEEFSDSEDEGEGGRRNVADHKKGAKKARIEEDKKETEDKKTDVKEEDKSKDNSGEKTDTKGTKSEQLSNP
Description: as §3

[7] = in vitro deacetylation assay, duplicates

IC50 [1]: 1300 nM | IC50 [6]: 15 nM | IC50 (HDAC3/NCOR2; [7]): 188 nM | IC50 (HDAC2; [7]): 746 nM
Compound: O=C(CCCCCCC(=O)Nc1ccc(Cl)c(C(=O)Nc2ccc(NC(=O)c3cc(Cl)ccc3Cl)cc2)c1)NO [IHR-SAHA]
IC50 [2]: 80 nM | HDAC inhibitory activity, acetylated tubulin accumulation (ratio to total tubulin), compared with SAHA [3]: increase in anti-HDAC activity | HDAC inhibitory activity, accumulation of acetylated histone 3 (ratio Ac-H3 to total H3) [4]: retain HDAC inhibitory activity | IC50 [5]: 140 nM | HDAC Activity (Fluorescent counts) (HDAC3/NCOR2; HDAC3/NCOR2, WW01 0 Log nM): 24959 Fluorescent counts and 25571 Fluorescent counts | HDAC Activity (Fluorescent counts) (HDAC3/NCOR2; HDAC3/NCOR2, WW01 0.5 Log nM): 24611 Fluorescent counts and 25823 Fluorescent counts | HDAC Activity (Fluorescent counts) (HDAC3/NCOR2; HDAC3/NCOR2, WW01 1 Log nM): 23771 Fluorescent counts and 23666 Fluorescent counts | HDAC Activity (Fluorescent counts) (HDAC3/NCOR2; HDAC3/NCOR2, WW01 1.5 Log nM): 20712 Fluorescent counts and 23164 Fluorescent counts | HDAC Activity (Fluorescent counts) (HDAC3/NCOR2; HDAC3/NCOR2, WW01 2 Log nM): 15438 Fluorescent counts and 15968 Fluorescent counts | HDAC Activity (Fluorescent counts) (HDAC3/NCOR2; HDAC3/NCOR2, WW01 2.5 Log nM): 10185 Fluorescent counts and 10772 Fluorescent counts | HDAC Activity (Fluorescent counts) (HDAC3/NCOR2; HDAC3/NCOR2, WW01 3 Log nM): 6354 Fluorescent counts and 6385 Fluorescent counts | HDAC Activity (Fluorescent counts) (HDAC3/NCOR2; HDAC3/NCOR2, WW01 3.5 Log nM): 4726 Fluorescent counts and 4835 Fluorescent counts | HDAC Activity (Fluorescent counts) (HDAC3/NCOR2; HDAC3/NCOR2, WW01 4 Log nM): 3849 Fluorescent counts and 3671 Fluorescent counts | HDAC Activity (Fluorescent counts) (HDAC3/NCOR2; HDAC3/NCOR2, WW01 -0.5 Log nM): 25301 Fluorescent counts and 26608 Fluorescent counts | HDAC Activity (Fluorescent counts) (HDAC2; HDAC2, WW01 0 Log nM): 25941 Fluorescent counts and 27493 Fluorescent counts | HDAC Activity (Fluorescent counts) (HDAC2; HDAC2, WW01 0.5 Log nM): 25227 Fluorescent counts and 26727 Fluorescent counts | HDAC Activity (Fluorescent counts) (HDAC2; HDAC2, WW01 1 Log nM): 25275 Fluorescent counts and 25129 Fluorescent counts | HDAC Activity (Fluorescent counts) (HDAC2; HDAC2, WW01 1.5 Log nM): 23536 Fluorescent counts and 23240 Fluorescent counts | HDAC Activity (Fluorescent counts) (HDAC2; HDAC2, WW01 2 Log nM): 22337 Fluorescent counts and 21686 Fluorescent counts | HDAC Activity (Fluorescent counts) (HDAC2; HDAC2, WW01 2.5 Log nM): 18050 Fluorescent counts and 16002 Fluorescent counts | HDAC Activity (Fluorescent counts) (HDAC2; HDAC2, WW01 3 Log nM): 12392 Fluorescent counts and 11718 Fluorescent counts | HDAC Activity (Fluorescent counts) (HDAC2; HDAC2, WW01 3.5 Log nM): 9603 Fluorescent counts and 9800 Fluorescent counts | HDAC Activity (Fluorescent counts) (HDAC2; HDAC2, WW01 4 Log nM): 7673 Fluorescent counts and 7404 Fluorescent counts | HDAC Activity (Fluorescent counts) (HDAC2; HDAC2, WW01 -0.5 Log nM): 26601 Fluorescent counts and 28049 Fluorescent counts
